We go through 6 compounds from patent US4108994A, “5-Thiazole-methane-amines, and their use as antilipolytics” (Roussel Uclaf, priority 1975, dated 1978).

Data set [1] deals with plasmatic free fatty acids. Nature of the data set: Antilipolytic activity: determination of plasmatic free fatty acids in the blood. The class given is in vivo, Male rats of the Sprague Dawley SPF strain. The note with it: oral; for ED50: Rattus norvegicus, 1 h, starved rats, one hour after administration, read-out: DA50 (dose which reduced by 50% the level of free fatty acids as compared to controls); for reduction of the amount of plasmatic free fatty acids in the blood (in words): rats. Here is the method: B. Antilipolytic Activity: Determination of Plasmatic Free Fatty Acids in the Blood
Male rats of the Sprague Dawley SPF strain weighing about 180 to 200 gm were starved for 24 hours and then were given the product orally. One hour after the oral administration, the animals were killed by carotidienne section and samples of the blood were obtained to determine the amount of free fatty acids. The extraction of the free fatty acids was made by the technique of Dole [J. Clin. Invest., Vol. 38 (1959), p. 1544-1554] as modified by Trout et al. [J. Lipid. Res., Vol. 1 (1960) p. 199-202]. The plasmatic extract freed of phospholipids was colorimetrically examined by the method of Anthonis [J. Lipid. Res., Vol. 6 (1965), p. 307-312]. Under these test conditions, the dose of the products which reduced by 50% the level of free fatty acids in the treated animals as compared to the controls (DA50) was determined.

Data set [2] is described as follows: acute toxicity, intraperitoneal, mice (DL50). The settings on record: mouse, in vivo, ip, suspension in carboxymethylcellulose, observed one week, read-out: DL50 (average lethal dose). As to the method:
The acute toxicity was determined on groups of 10 mice weighing between 18 and 22 g and the product was administered intraperitoneally as a suspension in carboxymethylcellulose.

A further data set relates to glycemia. Kind of data set: Hypoglycemiant activity: determination of glycemia. The settings on record: oral, starved rats, one hour. It counts as in vivo, Male rats of the Sprague Dawley SPF strain. As to the method:
C. Hypoglycemiant Activity: Determination of Glycemia
Male rats of the Sprague Dawley SPF strain weighing between 180 and 200 gm were starved for 24 hours and were then given the test product orally. One hour after the administration, the animals were killed by carotidienne section and blood samples were taken to determine the glycemia. The seric extract was treated by the enzymatic (glucose-oxydase) method of Boehringer and the percent of reduction of glycemia as compared to the controls was determined for each dose of the product administered.

Structures can show the parent of a compound that is named as a salt. Some results are limits rather than exact numbers.

Take `Cc1ncc(CN)s1` [Example 1, hemisuccinate of 2-methyl-5-thiazole-methane-amine]: in data set [1], the ED50 is roughly 0.8 mg/kg and the “reduction of the amount of plasmatic free fatty acids in the blood (in words)” value is “clear reduction”. In data set [2], the LD50 at 168 h is greater than 1000 mg/kg.
On the same counts, the results for `CNCc1cnc(C)s1` [Example 2, acetate of N,2-dimethyl-5-thiazole-methane-amine] are roughly 4 mg/kg, “clear reduction” and roughly 700 mg/kg.
On the same counts, the results for `Cc1ncc(CN(C)C)s1` [Example 3, maleate of N,N,2-trimethyl-5-thiazole-methane-amine] are roughly 5 mg/kg, “clear reduction” and roughly 450 mg/kg.
Take `Cc1ncc(CN(CCO)CCO)s1` [Example 4, dinitrate of N,N-bis-(β-hydroxyethyl)-2-methyl-5-thiazole-methane-amine]: in data set [2], the LD50 at 168 h was roughly 900 mg/kg.
Regarding `CCCc1ncc(CN)s1` [Example 5, hemisuccinate of 2-n-propyl-5-thiazole-methane-amine], the ED50 in data set [1] is roughly 8 mg/kg. The “reduction of the amount of plasmatic free fatty acids in the blood (in words)” value in data set [1] is reported as “clear reduction”. Moreover, the “Percentage of reduction of the glycemia” value with glycemia (5 mg/kg) is on record as -12%; with glycemia (10 mg/kg), -14%; with glycemia (20 mg/kg) it was -27%. Further, the LD50 at 168 h in data set [2] is roughly 650 mg/kg.
As for `Cc1ncc(CN2CCN(C)CC2)s1` [Example 7, 2-methyl-5-(4-methyl-piperazin-1-yl-methyl)-thiazole], the LD50 at 168 h in data set [2] is roughly 500 mg/kg.
